Measured values reported in ChEMBL document CHEMBL3885881, “DrugMatrix”.

Organism: Rattus norvegicus
Assay: DrugMatrix - Regimen: Daily Repeat
Format: toxicity, organism-based, Sprague-Dawley
Design: regimen Daily Repeat, gender Male, age 6-8 weeks
Conditions: in vivo, po, route oral GAVAGE, vehicle .5 % CMC; for ABSOLUTE BASOPHIL / ABSOLUTE EOSINOPHIL / ABSOLUTE LYMPHOCYTE / ABSOLUTE MONOCYTE / ABSOLUTE SEGMENTED NEUTROPHIL / BASOPHIL / EOSINOPHIL / ERYTHROCYTE COUNT / HEMATOCRIT / HEMOGLOBIN / LEUKOCYTE COUNT / LYMPHOCYTE / MEAN CORPUSCULAR HEMOGLOBIN / MEAN CORPUSCULAR HEMOGLOBIN CONCENTRATION / MEAN CORPUSCULAR VOLUME / MONOCYTE / NEUTROPHIL / NUCLEATED RED BLOOD CELLS / PLATELET COUNT: tissue Blood; for ALANINE AMINOTRANSFERASE / ALBUMIN / ALKALINE PHOSPHATASE / ASPARTATE AMINOTRANSFERASE / BLOOD UREA NITROGEN / CARBON DIOXIDE / CHLORIDE / CHOLESTEROL / CREATINE PHOSPHOKINASE / CREATININE / GLUCOSE / LACTATE DEHYDROGENASE / LIPASE / PHOSPHORUS / POTASSIUM / SODIUM / TOTAL BILIRUBIN / TOTAL PROTEIN / URIC ACID: tissue Plasma
[1] = 0 mg/kg, 72 h, dose level Control, time 3 day
[2] = 0 mg/kg, 120 h, dose level Control, time 5 day
[3] = 20 mg/kg, 72 h, dose level Low, time 3 day

CC(C)(C)NC(=O)[C@@H]1C[C@@H]2CCCC[C@@H]2CN1C[C@@H](O)[C@H](Cc1ccccc1)NC(=O)[C@H](CC(N)=O)NC(=O)c1ccc2ccccc2n1
ABSOLUTE BASOPHIL [1]: 0 CELLS/uL | ABSOLUTE EOSINOPHIL [1]: 222.83 CELLS/uL | ABSOLUTE LYMPHOCYTE [1]: 14453 CELLS/uL | ABSOLUTE MONOCYTE [1]: 0 CELLS/uL | ABSOLUTE SEGMENTED NEUTROPHIL [1]: 1490.83 CELLS/uL | BASOPHIL [1]: 0% | EOSINOPHIL [1]: 1.33% | ERYTHROCYTE COUNT [1]: 5.76 x10E6/uL | HEMATOCRIT [1]: 36.52% | HEMOGLOBIN [1]: 13.45 G/DL | LEUKOCYTE COUNT [1]: 16.17 x10E3/uL | LYMPHOCYTE [1]: 89.33% | MEAN CORPUSCULAR HEMOGLOBIN [1]: 23.37 pg | MEAN CORPUSCULAR HEMOGLOBIN CONCENTRATION [1]: 36.85 G/DL | MEAN CORPUSCULAR VOLUME [1]: 63.47 fL | MONOCYTE [1]: 0% | NEUTROPHIL [1]: 9.33% | NUCLEATED RED BLOOD CELLS [1]: 0 /100WBC | PLATELET COUNT [1]: 1239.5 x10E3/uL | ALANINE AMINOTRANSFERASE [1]: 43.83 u/L | ALBUMIN [1]: 4.27 G/DL | ALKALINE PHOSPHATASE [1]: 398.83 u/L | ASPARTATE AMINOTRANSFERASE [1]: 81.17 u/L | BLOOD UREA NITROGEN [1]: 17.67 mg/dL | CARBON DIOXIDE [1]: 27.5 mmol/L | CHLORIDE [1]: 99.17 MEQ/L | CHOLESTEROL [1]: 74 mg/dL | CREATINE PHOSPHOKINASE [1]: 331.5 u/L | CREATININE [1]: 0.2 mg/dL | GLUCOSE [1]: 171.33 mg/dL | LACTATE DEHYDROGENASE [1]: 241.67 u/L | LIPASE [1]: 9.5 u/L | PHOSPHORUS [1]: 12.25 mg/dL | POTASSIUM [1]: 6.33 MEQ/L | SODIUM [1]: 141.28 MEQ/L | TOTAL BILIRUBIN [1]: 0.15 mg/dL | TOTAL PROTEIN [1]: 5.98 G/DL | URIC ACID [1]: 1.63 mg/dL | ABSOLUTE BASOPHIL [2]: 0 CELLS/uL | ABSOLUTE EOSINOPHIL [2]: 148.67 CELLS/uL | ABSOLUTE LYMPHOCYTE [2]: 16020.5 CELLS/uL | ABSOLUTE MONOCYTE [2]: 29.17 CELLS/uL | ABSOLUTE SEGMENTED NEUTROPHIL [2]: 1468.33 CELLS/uL | BASOPHIL [2]: 0% | EOSINOPHIL [2]: 1% | ERYTHROCYTE COUNT [2]: 5.78 x10E6/uL | HEMATOCRIT [2]: 35.77% | HEMOGLOBIN [2]: 13.4 G/DL | LEUKOCYTE COUNT [2]: 17.67 x10E3/uL | LYMPHOCYTE [2]: 90.5% | MEAN CORPUSCULAR HEMOGLOBIN [2]: 23.22 pg | MEAN CORPUSCULAR HEMOGLOBIN CONCENTRATION [2]: 37.47 G/DL | MEAN CORPUSCULAR VOLUME [2]: 61.92 fL | MONOCYTE [2]: 0.17% | NEUTROPHIL [2]: 8.33% | NUCLEATED RED BLOOD CELLS [2]: 0.17 /100WBC | PLATELET COUNT [2]: 1255.5 x10E3/uL | ALANINE AMINOTRANSFERASE [2]: 46.5 u/L | ALBUMIN [2]: 4.38 G/DL | ALKALINE PHOSPHATASE [2]: 336 u/L | ASPARTATE AMINOTRANSFERASE [2]: 76.5 u/L | BLOOD UREA NITROGEN [2]: 20 mg/dL | CARBON DIOXIDE [2]: 27.5 mmol/L | CHLORIDE [2]: 101 MEQ/L | CHOLESTEROL [2]: 71.33 mg/dL | CREATINE PHOSPHOKINASE [2]: 231.83 u/L | CREATININE [2]: 0.37 mg/dL | GLUCOSE [2]: 168.83 mg/dL | LACTATE DEHYDROGENASE [2]: 174 u/L | LIPASE [2]: 8.67 u/L | PHOSPHORUS [2]: 11.48 mg/dL | POTASSIUM [2]: 6.82 MEQ/L | SODIUM [2]: 143.8 MEQ/L | TOTAL BILIRUBIN [2]: 0.2 mg/dL | TOTAL PROTEIN [2]: 5.98 G/DL | URIC ACID [2]: 1.83 mg/dL | ABSOLUTE BASOPHIL [3]: 0 CELLS/uL | ABSOLUTE EOSINOPHIL [3]: 240.67 CELLS/uL | ABSOLUTE LYMPHOCYTE [3]: 11319.33 CELLS/uL | ABSOLUTE MONOCYTE [3]: 32 CELLS/uL | ABSOLUTE SEGMENTED NEUTROPHIL [3]: 1141.33 CELLS/uL | BASOPHIL [3]: 0% | EOSINOPHIL [3]: 1.67% | ERYTHROCYTE COUNT [3]: 5.23 x10E6/uL | HEMATOCRIT [3]: 32.43% | HEMOGLOBIN [3]: 12.37 G/DL | LEUKOCYTE COUNT [3]: 12.73 x10E3/uL | LYMPHOCYTE [3]: 89% | MEAN CORPUSCULAR HEMOGLOBIN [3]: 23.63 pg | MEAN CORPUSCULAR HEMOGLOBIN CONCENTRATION [3]: 38.13 G/DL | MEAN CORPUSCULAR VOLUME [3]: 62 fL | MONOCYTE [3]: 0.33% | NEUTROPHIL [3]: 9% | NUCLEATED RED BLOOD CELLS [3]: 0 /100WBC | PLATELET COUNT [3]: 1264.33 x10E3/uL | ALANINE AMINOTRANSFERASE [3]: 43.67 u/L | ALBUMIN [3]: 4.1 G/DL | ALKALINE PHOSPHATASE [3]: 371.33 u/L | ASPARTATE AMINOTRANSFERASE [3]: 73.67 u/L | BLOOD UREA NITROGEN [3]: 14.33 mg/dL | CARBON DIOXIDE [3]: 25.67 mmol/L | CHLORIDE [3]: 102 MEQ/L | CHOLESTEROL [3]: 79.67 mg/dL | CREATINE PHOSPHOKINASE [3]: 319.67 u/L | CREATININE [3]: 0.15 mg/dL | GLUCOSE [3]: 144.67 mg/dL | LACTATE DEHYDROGENASE [3]: 139.33 u/L | LIPASE [3]: 8 u/L | PHOSPHORUS [3]: 12.8 mg/dL | POTASSIUM [3]: 6.81 MEQ/L | SODIUM [3]: 142.53 MEQ/L | TOTAL BILIRUBIN [3]: 0.2 mg/dL | TOTAL PROTEIN [3]: 5.67 G/DL | URIC ACID [3]: 1.47 mg/dL
